Values quoted from earlier work in article PMC8244136, “Integrin αvβ6-targeted MR molecular imaging of breast cancer in a xenograft mouse model” (Cancer Imaging, 2021).

Columns and labels:
[1] = Description: (§1) Because of the significance of integrin αvβ6 in tumorigenesis and tumor progression, many pioneering experimental studies have focused on αvβ6-targeted ligands, including peptides and non-peptide inhibitors. More recently, a novel sub-nanomolar αvβ6-specific ligand, the nonapeptide cyclo [FRGDLAFp(NMe)K] (referred to as cFK-9) was identified, which is characterized by the RXDLXXL motif sequence.
αvβ3 = settings: selectivity against other integrins
Description: as §1

integrin αvβ6 = settings: read-out: αvβ6 binding affinity IC50
Description: as §1

αIIbβ3 = settings: selectivity against other integrins
Description: as §1

αvβ5 = settings: selectivity against other integrins
Description: as §1

α5β1 = settings: selectivity against other integrins
Description: as §1

cyclo [FRGDLAFp(NMe)K] (head to tail) [cFK-9, sub-nanomolar αvβ6-specific ligand, cyclic RGD nonapeptide with RXDLXXL motif]
stability in human plasma [1]: very stable
IC50 (αvβ3): 632 nM
IC50 (integrin αvβ6): 0.26 nM
IC50 (αIIbβ3): > 1000 nM
IC50 (αvβ5): > 1000 nM
IC50 (α5β1): 73 nM
